# Key:
# INS+ cells = assay: High-content survival / inhibitory curve, hESC-derived INS+ cells; format: cell-based, human; details: H1 hESC-derived, β-cell differentiation protocol 1, 4 days treatment, n = 8; read-out: IC50 for INS+ cells
# Experimental: The screening library ToxCast Phase I was obtained from the US Environmental Protection Agency, which contains approximately 2000 compounds dissolved at 20 mM in DMSO. The H1 hESC-derived population was dissociated with Accutase and re-plated onto laminin V-coated 384-well plates at 5000 cells per well. After 16 h incubation, cells were treated with individual compounds from the ToxCast library with four concentrations, including 20 nM, 200 nM, 2 μM, and 20 μM, for each compound. After 4 days, the cells were fixed with 10% formalin and stained with an INS antibody and DAPI, followed by automatic imaging and analysis by ImageXpress^MICRO Automated High-Content Analysis System (Molecular Devices) to count the numbers of INS^+ and INS^− cells. The survival rate was calculated by dividing the numbers of INS^+ cells in compound treated conditions by the average number of INS^+ cells in DMSO-treated conditions. The compounds that induced more than 60% reduction of the survival rate of INS^+ cells and less than 20% of the INS^− cells were chosen as primary hits. Hit compounds were then selected and validated in three additional independent experiments using the same protocol as the primary screening.
# (§1) hESCs-derived INS^+ cells, MSCs[43], neurons, and hepatocytes[44] were derived based on the reported protocols and re-plated on 96-well plates with Accutase digestion. Cardiomyocytes (CMs) were differentiated from H9-MYH6: mCherry reporter line, based on the reported protocol. After overnight incubation, cells were treated with DMSO or different doses of hit compounds for 4 days. After fixation, the cells were stained with markers for each cell type. DAPI was used to stain cell nuclei. Plates were analyzed by ImageXpress^MICRO Automated High-Content Analysis System.
# GSTT1+/+ INS+ cells = assay: Inhibition curve on INS+ cells derived from GSTT1+/+ H1 hESCs; format: cell-based, human; details: H1 hESC-derived, n = 3; read-out: IC50 of GSTT1+/+-1 INS+ cells
# Experimental: as §1
# CRISPR sgRNA sequences were designed using the web resources available at http://www.genome-engineering.org/. The target sequences are listed in Supplementary Table 2. Each target sequence was cloned into the pX330-U6-Chimeric_BB-CBh-hSpCas9 vector (Addgene plasmid #42230) to make the gene targeting constructs. To knockout the target genes, two sgRNAs were validated using the surveyor assay in 293T cells, and we chose 1 sgRNA-construct plasmid for further experiments. After validation, H1 or INS^GFP/W HES3 cells were dissociated using Accutase (STEM CELL) and electroporated (8 × 10^5 cells per sample) with 4 μg sgRNA-construct plasmids using Human Stem Cell Nucleofector^TM solution (Lonza) following manufacturer’s instructions. […] A portion of the cells was analyzed by DNA sequencing. […]
# MIN6 cells = assay: Apoptosis analysis (Annexin V flow cytometry, active caspase-3 staining); format: cell-based, mouse; details: immunocytochemistry, 1.6 µM
# Experimental: Cells were fixed with 10% (v/v) formalin for 20 min at room temperature (RT) and blocked in a solution of Mg^2+- and Ca^2+-free PBS containing 5% horse serum and 0.3% Triton-X for 1 h at room temperature and followed by incubation with primary antibody at 4 °C overnight. […]
# Cells were dissociated by Accutase (Stem Cells) and washed with cold DPBS and then detected with FITC Annexin V Apoptosis Detection Kit I (BD Bioscience, 556547), and analyzed within 1 h by FACSVantage SE (Becton Dickinson). […]
# cells. (b, c) Flow cytometry analysis (b) and quantification (c) of the percentage of […]
# Etoposide was used as a positive control. Values presented as mean±S.D. (d, e) Immunocytochemistry analysis (d) and quantification (e) of the percentage of Active Caspase-3+ cells in 1.6 µM propargite treated MIN6 cells (n=3). […]
substance,measurement,setting,value
2-(4-tert-butylphenoxy)-cyclohexyl prop-2-yne-1-sulfonate [propargite],IC50,INS+ cells,1090 nM
same,IC50,GSTT1+/+ INS+ cells,2150 nM
same,caspase-3 activation,MIN6 cells,nor caspase-3 activation
